Assay results as given in patent US20230150974A1 (Foghorn Therapeutics Inc., priority 2020, published 2023).
Where a name gives a salt, the structure may show the parent alone.

How the values were obtained:
HiBit-BRG1 = biological target: T1, HiBit-BRG1 (Homo sapiens, UniProt P51532); experiment: HiBit-BRG1 cell-based degradation assay (Nano-Glo HiBiT Lytic Detection); conditions: HeLa cells expressing HiBit-BRG1 and LgBit, 24 h; for DC50: read-out: BRG1 HiBit Degradation IC50; for Dmax: read-out: BRG1 HiBit Degradation Maximum (%)
T1 construct: expressed in transfected cells
T1 sequence (P51532 whole entry): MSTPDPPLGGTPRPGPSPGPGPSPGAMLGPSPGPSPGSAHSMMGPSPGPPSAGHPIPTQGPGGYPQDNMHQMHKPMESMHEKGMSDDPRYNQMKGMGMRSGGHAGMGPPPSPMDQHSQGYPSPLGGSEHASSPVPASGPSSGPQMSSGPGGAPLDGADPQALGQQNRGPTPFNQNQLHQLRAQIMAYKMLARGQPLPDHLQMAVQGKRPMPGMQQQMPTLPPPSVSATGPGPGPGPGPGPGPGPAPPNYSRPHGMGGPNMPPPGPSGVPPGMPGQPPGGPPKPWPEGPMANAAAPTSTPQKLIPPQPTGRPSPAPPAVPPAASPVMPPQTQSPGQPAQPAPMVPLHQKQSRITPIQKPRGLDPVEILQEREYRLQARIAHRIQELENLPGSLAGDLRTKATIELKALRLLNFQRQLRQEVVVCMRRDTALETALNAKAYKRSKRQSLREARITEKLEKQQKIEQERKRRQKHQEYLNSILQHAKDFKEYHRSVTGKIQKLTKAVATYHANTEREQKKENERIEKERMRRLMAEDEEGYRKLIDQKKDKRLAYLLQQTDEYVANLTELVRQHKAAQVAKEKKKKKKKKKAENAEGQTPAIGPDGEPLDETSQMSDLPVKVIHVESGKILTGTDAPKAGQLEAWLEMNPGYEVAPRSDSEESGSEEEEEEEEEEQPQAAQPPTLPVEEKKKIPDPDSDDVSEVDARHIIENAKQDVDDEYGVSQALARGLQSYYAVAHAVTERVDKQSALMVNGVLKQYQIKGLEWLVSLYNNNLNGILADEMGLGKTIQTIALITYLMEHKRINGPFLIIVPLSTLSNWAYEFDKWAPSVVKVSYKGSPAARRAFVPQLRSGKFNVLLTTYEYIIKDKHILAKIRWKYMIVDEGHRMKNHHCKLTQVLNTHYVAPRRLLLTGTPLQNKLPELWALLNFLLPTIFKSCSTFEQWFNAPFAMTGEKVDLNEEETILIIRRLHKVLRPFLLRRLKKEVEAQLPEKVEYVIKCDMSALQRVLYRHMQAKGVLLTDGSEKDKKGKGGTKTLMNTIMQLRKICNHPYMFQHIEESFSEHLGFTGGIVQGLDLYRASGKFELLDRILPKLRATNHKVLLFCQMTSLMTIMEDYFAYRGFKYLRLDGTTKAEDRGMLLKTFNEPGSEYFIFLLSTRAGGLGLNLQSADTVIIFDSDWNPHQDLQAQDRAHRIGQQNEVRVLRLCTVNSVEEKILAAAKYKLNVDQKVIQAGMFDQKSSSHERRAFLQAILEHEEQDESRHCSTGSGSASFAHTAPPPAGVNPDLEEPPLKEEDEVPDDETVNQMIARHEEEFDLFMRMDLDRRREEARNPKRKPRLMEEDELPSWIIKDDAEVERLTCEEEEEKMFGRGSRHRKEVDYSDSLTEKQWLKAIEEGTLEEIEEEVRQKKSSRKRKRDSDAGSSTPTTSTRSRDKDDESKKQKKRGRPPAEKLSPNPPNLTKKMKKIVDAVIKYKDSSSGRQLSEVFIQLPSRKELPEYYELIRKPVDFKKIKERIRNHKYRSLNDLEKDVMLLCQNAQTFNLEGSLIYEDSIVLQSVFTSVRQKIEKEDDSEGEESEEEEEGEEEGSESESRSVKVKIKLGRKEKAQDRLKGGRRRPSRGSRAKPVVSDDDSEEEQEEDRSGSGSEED
In short: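 HeLa cells stably expressing HiBit-BRG1 plus LgBit; compound exposure 24 h; Nano-Glo HiBiT lytic luminescence; % degradation vs DMSO (0%) and 2 μM standard BRM/BRG1 degrader (100%).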

HiBiT-BRM = biological target: T2, HiBiT-BRM (Homo sapiens, UniProt P51531); experiment: HiBiT-BRM cell-based degradation assay (Nano-Glo HiBiT Lytic Detection); conditions: HeLa cells expressing HiBiT-BRM, 24 h; for DC50: read-out: BRM HiBit Degradation IC50
T2 construct: expressed in transfected cells
T2 sequence (P51531 whole entry): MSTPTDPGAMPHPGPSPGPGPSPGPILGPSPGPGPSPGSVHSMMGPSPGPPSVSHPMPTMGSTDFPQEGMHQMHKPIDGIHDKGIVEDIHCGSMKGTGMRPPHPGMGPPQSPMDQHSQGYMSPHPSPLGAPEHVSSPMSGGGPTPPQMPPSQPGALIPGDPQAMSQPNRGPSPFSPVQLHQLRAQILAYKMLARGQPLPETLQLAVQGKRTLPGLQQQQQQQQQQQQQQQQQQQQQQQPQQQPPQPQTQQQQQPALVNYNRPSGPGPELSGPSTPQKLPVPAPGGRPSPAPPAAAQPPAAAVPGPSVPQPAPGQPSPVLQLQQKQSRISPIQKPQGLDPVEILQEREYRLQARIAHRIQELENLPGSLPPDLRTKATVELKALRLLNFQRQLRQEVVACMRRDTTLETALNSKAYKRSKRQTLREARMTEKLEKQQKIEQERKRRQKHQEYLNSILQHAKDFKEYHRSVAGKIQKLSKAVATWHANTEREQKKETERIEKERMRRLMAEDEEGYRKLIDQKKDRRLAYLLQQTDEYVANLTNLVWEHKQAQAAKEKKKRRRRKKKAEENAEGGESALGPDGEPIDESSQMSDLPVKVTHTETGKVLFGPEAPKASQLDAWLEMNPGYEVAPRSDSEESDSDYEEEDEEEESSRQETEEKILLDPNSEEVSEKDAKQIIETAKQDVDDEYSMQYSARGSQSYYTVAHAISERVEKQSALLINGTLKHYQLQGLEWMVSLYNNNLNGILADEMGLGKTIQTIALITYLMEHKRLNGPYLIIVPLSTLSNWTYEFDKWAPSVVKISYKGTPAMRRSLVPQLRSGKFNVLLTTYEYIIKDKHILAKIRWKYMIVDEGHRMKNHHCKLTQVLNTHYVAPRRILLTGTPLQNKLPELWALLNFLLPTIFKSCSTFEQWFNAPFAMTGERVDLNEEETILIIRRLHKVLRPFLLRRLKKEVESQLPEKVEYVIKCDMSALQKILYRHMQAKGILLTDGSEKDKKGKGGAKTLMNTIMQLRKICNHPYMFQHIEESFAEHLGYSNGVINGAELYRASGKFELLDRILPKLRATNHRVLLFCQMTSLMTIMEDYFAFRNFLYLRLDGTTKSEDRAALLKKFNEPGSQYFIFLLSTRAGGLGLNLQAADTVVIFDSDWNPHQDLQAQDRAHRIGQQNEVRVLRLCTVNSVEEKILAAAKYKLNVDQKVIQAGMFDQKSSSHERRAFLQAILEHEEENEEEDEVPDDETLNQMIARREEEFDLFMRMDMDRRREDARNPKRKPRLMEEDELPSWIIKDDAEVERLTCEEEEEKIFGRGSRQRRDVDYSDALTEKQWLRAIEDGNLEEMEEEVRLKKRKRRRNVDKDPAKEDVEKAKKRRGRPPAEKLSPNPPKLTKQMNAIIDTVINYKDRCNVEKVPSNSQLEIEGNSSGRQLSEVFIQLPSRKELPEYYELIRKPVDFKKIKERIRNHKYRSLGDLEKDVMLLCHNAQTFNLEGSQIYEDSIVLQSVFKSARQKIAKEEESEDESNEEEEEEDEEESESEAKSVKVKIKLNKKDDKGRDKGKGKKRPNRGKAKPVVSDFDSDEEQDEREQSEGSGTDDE
In short: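 Luminescence from HiBiT–LgBiT complementation in lysates of a stable HiBiT-BRM HeLa line measured after 24 h compound exposure. Degradation expressed as percent relative to DMSO-treated cells and cells given 2 μM of a known BRM/BRG1 degrader.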

For Cc1ncsc1-c1ccc(CNC(=O)[C@@H]2C[C@@H](O)CN2C(=O)[C@@H](NC(=O)CCCCCCCCC(=O)NCc2ccc(CCOc3cc(-c4ccccc4O)nnc3N)cc2)C(C)(C)C)cc1 [Compound 138, N1-(4-(2-((3-amino-6-(2-hydroxyphenyl)pyridazin-4-yl)oxy)ethyl)benzyl)-N10-((S)-1-((2S,4R)-4-hydroxy-2-((4-(4-methylthiazol-5-yl)benzyl)carbamoyl)pyrrolidin-1-yl)-3,3-dimethyl-1-oxobutan-2-yl)decanediamide], the DC50 (HiBit-BRG1) was > 1000 nM, the Dmax (HiBit-BRG1) was < 50% and the “BRM HiBit Degradation Maximum (%)” value (HiBiT-BRM) was “A (“A” indicates maximum degradation ≥75%)”. The DC50 (HiBiT-BRM) was > 100 nM.
In the case of Cc1ncsc1-c1ccc(CNC(=O)[C@@H]2C[C@@H](O)CN2C(=O)[C@@H](NC(=O)CCCCCCCCCNCc2ccc(CCNc3cc(-c4ccccc4O)nnc3N)cc2)C(C)(C)C)cc1 [Compound 139, (2S,4R)-1-((S)-2-(10-((4-(2-((3-amino-6-(2-hydroxyphenyl)pyridazin-4-yl)amino)ethyl)benzyl)amino)decanamido)-3,3-dimethylbutanoyl)-4-hydroxy-N-(4-(4-methylthiazol-5-yl)benzyl)pyrrolidine-2-carboxamide], the DC50 (HiBit-BRG1) is reported as > 1000 nM, the Dmax (HiBit-BRG1) is reported as > 50% and the “BRM HiBit Degradation Maximum (%)” value (HiBiT-BRM) is reported as “A (“A” indicates maximum degradation ≥75%)”. For the same compound, the DC50 (HiBiT-BRM) was > 100 nM.
Cc1ncsc1-c1ccc(CNC(=O)[C@@H]2C[C@@H](O)CN2C(=O)[C@@H](NC(=O)CCCCCCCCC(=O)NCc2ccc(CCNc3cc(-c4ccccc4O)nnc3N)cc2)C(C)(C)C)cc1 [Compound 140, N′-[[4-(2-[[3-amino-6-(2-hydroxyphenyl)pyridazin-4-yl]amino]ethyl)phenyl]methyl]-N-[(2S)-1-[(2S,4R)-4-hydroxy-2-([[4-(4-methyl-1,3-thiazol-5-yl)phenyl]methyl]carbamoyl)pyrrolidin-1-yl]-3,3-dimethyl-1-oxobutan-2-yl]decanediamide] was tested, and the DC50 (HiBit-BRG1) was > 1000 nM, the Dmax (HiBit-BRG1) was < 50% and the “BRM HiBit Degradation Maximum (%)” value (HiBiT-BRM) was “A (“A” indicates maximum degradation ≥75%)”. For the same compound, the DC50 (HiBiT-BRM) was > 100 nM.
For Nc1nnc(-c2ccccc2O)cc1NCCc1ccc(CNC(=O)CCCCNc2cccc3nnn(C4CCC(=O)NC4=O)c(=O)c23)cc1 (centres unmarked) [Compound 141, N-(4-(2-((3-amino-6-(2-hydroxyphenyl)pyridazin-4-yl)amino)ethyl)benzyl)-5-((3-(2,6-dioxopiperidin-3-yl)-4-oxo-3,4-dihydrobenzo[d][1,2,3]triazin-5-yl)amino)pentanamide], the DC50 (HiBit-BRG1) was > 1000 nM, the Dmax (HiBit-BRG1) was < 50% and the “BRM HiBit Degradation Maximum (%)” value (HiBiT-BRM) was “C (“C” indicates maximum degradation <50%)”. For the same compound, the DC50 (HiBiT-BRM) was > 1000 nM.
In the case of CN(CCc1ccc(CNC(=O)CCCCNc2cccc3nnn(C4CCC(=O)NC4=O)c(=O)c23)cc1)c1cc(-c2ccccc2O)nnc1N (centres unmarked) [Compound 142, N-(4-(2-((3-amino-6-(2-hydroxyphenyl)pyridazin-4-yl)(methyl)amino)ethyl)benzyl)-5-((3-(2,6-dioxopiperidin-3-yl)-4-oxo-3,4-dihydrobenzo[d][1,2,3]triazin-5-yl)amino)pentanamide], the DC50 (HiBit-BRG1) is reported as > 1000 nM, the Dmax (HiBit-BRG1) is reported as < 50% and the “BRM HiBit Degradation Maximum (%)” value (HiBiT-BRM) is reported as “C (“C” indicates maximum degradation <50%)”. For the same compound, the DC50 (HiBiT-BRM) was > 1000 nM.
In the case of Nc1nnc(-c2ccccc2O)cc1OCCc1ccc(CN2CC(N3CCN(c4cccc5c4C(=O)N(C4CCC(=O)NC4=O)C5=O)CC3)C2)cc1 (centres unmarked) [Compound 143, 4-(4-(1-(4-(2-((3-amino-6-(2-hydroxyphenyl)pyridazin-4-yl)oxy)ethyl)benzyl)azetidin-3-yl)piperazin-1-yl)-2-(2,6-dioxopiperidin-3-yl)isoindoline-1,3-dione], the DC50 (HiBit-BRG1) is reported as > 1000 nM, the Dmax (HiBit-BRG1) is reported as < 50% and the “BRM HiBit Degradation Maximum (%)” value (HiBiT-BRM) is reported as “C (“C” indicates maximum degradation <50%)”. The DC50 (HiBiT-BRM) was > 1000 nM.
With CN(CCCCCOc1cccc2c1C(=O)N(C1CCC(=O)NC1=O)C2=O)Cc1ccc(CCN(C)c2cc(-c3ccccc3O)nnc2N)cc1 (centres unmarked) [Compound 145, 4-((5-((4-(2-((3-amino-6-(2-hydroxyphenyl)pyridazin-4-yl)(methyl)amino)ethyl)benzyl)(methyl)amino)pentyl)oxy)-2-(2,6-dioxopiperidin-3-yl)isoindoline-1,3-dione formate] the DC50 (HiBit-BRG1) was > 1000 nM, the Dmax (HiBit-BRG1) was < 50% and the “BRM HiBit Degradation Maximum (%)” value (HiBiT-BRM) was “C (“C” indicates maximum degradation <50%)”. The DC50 (HiBiT-BRM) was > 1000 nM.
For CN(CCc1ccc(CNC(=O)CCCCOc2cccc3c2C(=O)N(C2CCC(=O)NC2=O)C3=O)cc1)c1cc(-c2ccccc2O)nnc1N (centres unmarked) [Compound 146, N-(4-(2-((3-amino-6-(2-hydroxyphenyl)pyridazin-4-yl)(methyl)amino)ethyl)benzyl)-5-((2-(2,6-dioxopiperidin-3-yl)-1,3-dioxoisoindolin-4-yl)oxy)pentanamide], the DC50 (HiBit-BRG1) was > 1000 nM, the Dmax (HiBit-BRG1) was < 50% and the “BRM HiBit Degradation Maximum (%)” value (HiBiT-BRM) was “C (“C” indicates maximum degradation <50%)”. For the same compound, the DC50 (HiBiT-BRM) was > 1000 nM.
Nc1nnc(-c2ccccc2O)cc1NCCc1ccc(CNC(=O)CCCCOc2cccc3c2C(=O)N(C2CCC(=O)NC2=O)C3=O)cc1 (centres unmarked) [Compound 147, N-(4-(2-((3-amino-6-(2-hydroxyphenyl)pyridazin-4-yl)amino)ethyl)benzyl)-5-((2-(2,6-dioxopiperidin-3-yl)-1,3-dioxoisoindolin-4-yl)oxy)pentanamide] was tested, and the DC50 (HiBit-BRG1) was > 1000 nM, the Dmax (HiBit-BRG1) was < 50% and the “BRM HiBit Degradation Maximum (%)” value (HiBiT-BRM) was “C (“C” indicates maximum degradation <50%)”. For the same compound, the DC50 (HiBiT-BRM) was > 1000 nM.
For CN(CCCCCOc1ccc2c(c1)C(=O)N(C1CCC(=O)NC1=O)C2=O)Cc1ccc(CCOc2cc(-c3ccccc3O)nnc2N)cc1 (centres unmarked) [Compound 148, 5-((5-((4-(2-((3-amino-6-(2-hydroxyphenyl)pyridazin-4-yl)oxy)ethyl)benzyl)(methyl)amino)pentyl)oxy)-2-(2,6-dioxopiperidin-3-yl)isoindoline-1,3-dioneformate], the DC50 (HiBit-BRG1) was > 1000 nM, the Dmax (HiBit-BRG1) was < 50% and the “BRM HiBit Degradation Maximum (%)” value (HiBiT-BRM) was “C (“C” indicates maximum degradation <50%)”. For the same compound, the DC50 (HiBiT-BRM) was > 1000 nM.
In the case of Nc1nnc(-c2ccccc2O)cc1OCCc1ccc(C(=O)NCCN2CCN(c3cccc4c3C(=O)N(C3CCC(=O)NC3=O)C4=O)CC2)cc1 (centres unmarked) [Compound 149, 4-(2-((3-amino-6-(2-hydroxyphenyl)pyridazin-4-yl)oxy)ethyl)-N-(2-(4-(2-(2,6-dioxopiperidin-3-yl)-1,3-dioxoisoindolin-4-yl)piperazin-1-yl)ethyl)benzamide], the DC50 (HiBit-BRG1) is reported as > 100 nM, the Dmax (HiBit-BRG1) is reported as > 50% and the “BRM HiBit Degradation Maximum (%)” value (HiBiT-BRM) is reported as “A (“A” indicates maximum degradation ≥75%)”. The DC50 (HiBiT-BRM) was > 100 nM.
With CN(CCCCCOc1cccc2c1C(=O)N(C1CCC(=O)NC1=O)C2=O)Cc1ccc(CCNc2cc(-c3ccccc3O)nnc2N)cc1 (centres unmarked) [Compound 150, 4-((5-((4-(2-((3-amino-6-(2-hydroxyphenyl)pyridazin-4-yl)amino)ethyl)benzyl)(methyl)amino)pentyl)oxy)-2-(2,6-dioxopiperidin-3-yl)isoindoline-1,3-dione, formic acid salt] the DC50 (HiBit-BRG1) was > 1000 nM, the Dmax (HiBit-BRG1) was < 50% and the “BRM HiBit Degradation Maximum (%)” value (HiBiT-BRM) was “C (“C” indicates maximum degradation <50%)”. The DC50 (HiBiT-BRM) was > 1000 nM.
In the case of CN(CCCCCNc1ccc2c(c1)C(=O)N(C1CCC(=O)NC1=O)C2=O)Cc1ccc(CCOc2cc(-c3ccccc3O)nnc2N)cc1 (centres unmarked) [Compound 151, 5-[[5-([[4-(2-[[3-amino-6-(2-hydroxyphenyl)pyridazin-4-yl]oxy]ethyl)phenyl]methyl](methyl)amino)pentyl]amino]-2-(2,6-dioxopiperidin-3-yl)isoindole-1,3-dione], the DC50 (HiBit-BRG1) is reported as > 1000 nM, the Dmax (HiBit-BRG1) is reported as > 50% and the “BRM HiBit Degradation Maximum (%)” value (HiBiT-BRM) is reported as “C (“C” indicates maximum degradation <50%)”. The DC50 (HiBiT-BRM) was > 1000 nM.
In the case of Nc1nnc(-c2ccccc2O)cc1OCCc1ccc(CNC(=O)CCCCOc2cccc3c2C(=O)N(C2CCC(=O)NC2=O)C3)cc1 (centres unmarked) [Compound 152, N-(4-(2-((3-amino-6-(2-hydroxyphenyl)pyridazin-4-yl)oxy)ethyl)benzyl)-5-((2-(2,6-dioxopiperidin-3-yl)-3-oxoisoindolin-4-yl)oxy)pentanamide], the DC50 (HiBit-BRG1) is reported as > 1000 nM, the Dmax (HiBit-BRG1) is reported as < 50% and the “BRM HiBit Degradation Maximum (%)” value (HiBiT-BRM) is reported as “A (“A” indicates maximum degradation ≥75%)”. For the same compound, the DC50 (HiBiT-BRM) was > 100 nM.
For Nc1nnc(-c2ccccc2O)cc1OCCc1ccc(CNCCN2CCN(c3cccc4c3C(=O)N(C3CCC(=O)NC3=O)C4=O)CC2=O)cc1 (centres unmarked) [Compound 153, 4-(4-(2-((4-(2-((3-amino-6-(2-hydroxyphenyl)pyridazin-4-yl)oxy)ethyl)benzyl)amino)ethyl)-3-oxopiperazin-1-yl)-2-(2,6-dioxopiperidin-3-yl)isoindoline-1,3-dione], the DC50 (HiBit-BRG1) was > 1000 nM, the Dmax (HiBit-BRG1) was < 50% and the “BRM HiBit Degradation Maximum (%)” value (HiBiT-BRM) was “C (“C” indicates maximum degradation <50%)”. The DC50 (HiBiT-BRM) was > 1000 nM.
With Nc1nnc(-c2ccccc2O)cc1OCCc1ccc(CNC(=O)CCCCNc2ccc3c(c2)C(=O)N(C2CCC(=O)NC2=O)C3=O)cc1 (centres unmarked) [Compound 154, N-(4-(2-((3-amino-6-(2-hydroxyphenyl)pyridazin-4-yl)oxy)ethyl)benzyl)-5-((2-(2,6-dioxopiperidin-3-yl)-1,3-dioxoisoindolin-5-yl)amino)pentanamide] the DC50 (HiBit-BRG1) was > 1000 nM, the Dmax (HiBit-BRG1) was < 50% and the “BRM HiBit Degradation Maximum (%)” value (HiBiT-BRM) was “C (“C” indicates maximum degradation <50%)”. For the same compound, the DC50 (HiBiT-BRM) was > 1000 nM.
Nc1nnc(-c2ccccc2O)cc1OCCc1ccc(CNC(=O)CCCCNc2cccc3c2C(=O)N(C2CCC(=O)NC2=O)C3)cc1 (centres unmarked) [Compound 155, N-(4-(2-((3-amino-6-(2-hydroxyphenyl)pyridazin-4-yl)oxy)ethyl)benzyl)-5-((2-(2,6-dioxopiperidin-3-yl)-3-oxoisoindolin-4-yl)amino)pentanamide] was tested, and the DC50 (HiBit-BRG1) was > 1000 nM, the Dmax (HiBit-BRG1) was < 50% and the “BRM HiBit Degradation Maximum (%)” value (HiBiT-BRM) was “A (“A” indicates maximum degradation ≥75%)”. The DC50 (HiBiT-BRM) was > 100 nM.
